Consider two compounds from ChEMBL document CHEMBL3272184.

Structures are written as SMILES.

Test [1] deals with T1, Catechol O-methyltransferase (Rattus norvegicus) (UniProt P22734).
T1 sequence (whole entry): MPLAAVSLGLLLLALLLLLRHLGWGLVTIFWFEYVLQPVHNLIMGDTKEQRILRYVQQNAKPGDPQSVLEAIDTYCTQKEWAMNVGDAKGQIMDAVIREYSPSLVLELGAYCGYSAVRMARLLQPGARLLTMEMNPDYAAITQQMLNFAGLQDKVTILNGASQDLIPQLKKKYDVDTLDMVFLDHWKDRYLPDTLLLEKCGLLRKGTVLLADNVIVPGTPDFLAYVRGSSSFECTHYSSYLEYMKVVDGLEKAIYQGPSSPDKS
The experiment in a line: Inhibition of Sprague-Dawley rat liver catechol O-methyltransferase using 24 to 210 uM S-adenosylmethionine substrate.

Test [2] has as its target T2, Phenylethanolamine N-methyltransferase (Bos taurus) (UniProt P10938).
T2 sequence (whole entry): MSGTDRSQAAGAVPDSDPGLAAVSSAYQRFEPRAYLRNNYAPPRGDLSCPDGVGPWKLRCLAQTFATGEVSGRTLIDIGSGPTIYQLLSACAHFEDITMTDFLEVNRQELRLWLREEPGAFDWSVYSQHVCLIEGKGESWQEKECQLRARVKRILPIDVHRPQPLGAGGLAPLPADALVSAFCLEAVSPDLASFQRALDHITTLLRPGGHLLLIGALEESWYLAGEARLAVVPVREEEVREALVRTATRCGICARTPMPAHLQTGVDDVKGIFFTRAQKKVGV
Put plainly: Inhibition of bovine adrenal medulla phenylethanolamine N-methyltransferase using 24 to 210 uM S-adenosylmethionine substrate.

The target of test [3] is T3, Acetylserotonin O-methyltransferase (Bos taurus) (UniProt P10950).
T3 sequence (whole entry): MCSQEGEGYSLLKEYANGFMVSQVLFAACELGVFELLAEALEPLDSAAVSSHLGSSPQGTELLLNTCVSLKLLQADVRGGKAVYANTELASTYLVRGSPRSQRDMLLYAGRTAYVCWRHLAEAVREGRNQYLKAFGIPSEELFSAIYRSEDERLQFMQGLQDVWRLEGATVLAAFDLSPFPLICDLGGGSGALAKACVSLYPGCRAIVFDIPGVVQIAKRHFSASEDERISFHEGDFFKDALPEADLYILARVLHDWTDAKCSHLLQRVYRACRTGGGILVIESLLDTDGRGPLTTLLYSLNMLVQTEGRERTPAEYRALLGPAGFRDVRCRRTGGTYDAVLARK
The experiment in a line: Inhibition of bovine pineal gland hydroxyindole O-methyltransferase using 24 to 210 uM S-adenosylmethionine substrate.

As to `Nc1ncnc2c1ncn2[C@@H]1O[C@H](CSCC[C@H](N)C(=O)O)[C@@H](O)[C@H]1O`, the Kis in test [1] is 36.3 µM; in test [2], 29 µM; in test [3], 18.5 µM.

The compound `Nc1ncnc2c1ncn2[C@@H]1C[C@@H](CSCC[C@H](N)C(=O)O)[C@@H](O)[C@H]1O` had a Kis in test [3] of 51.8 µM.
